# In patent US20260184708A1, “PYRIDAZINONES AND METHODS OF USE THEREOF” (GFB (ABC), LLC, priority 2017, published 2026):
# Biological target: T1, TRPC5 (Homo sapiens, UniProt Q9UL62)
# T1 construct: expressed in transfected cells; host or cells: HEK 293
# T1 sequence (Q9UL62 1-973): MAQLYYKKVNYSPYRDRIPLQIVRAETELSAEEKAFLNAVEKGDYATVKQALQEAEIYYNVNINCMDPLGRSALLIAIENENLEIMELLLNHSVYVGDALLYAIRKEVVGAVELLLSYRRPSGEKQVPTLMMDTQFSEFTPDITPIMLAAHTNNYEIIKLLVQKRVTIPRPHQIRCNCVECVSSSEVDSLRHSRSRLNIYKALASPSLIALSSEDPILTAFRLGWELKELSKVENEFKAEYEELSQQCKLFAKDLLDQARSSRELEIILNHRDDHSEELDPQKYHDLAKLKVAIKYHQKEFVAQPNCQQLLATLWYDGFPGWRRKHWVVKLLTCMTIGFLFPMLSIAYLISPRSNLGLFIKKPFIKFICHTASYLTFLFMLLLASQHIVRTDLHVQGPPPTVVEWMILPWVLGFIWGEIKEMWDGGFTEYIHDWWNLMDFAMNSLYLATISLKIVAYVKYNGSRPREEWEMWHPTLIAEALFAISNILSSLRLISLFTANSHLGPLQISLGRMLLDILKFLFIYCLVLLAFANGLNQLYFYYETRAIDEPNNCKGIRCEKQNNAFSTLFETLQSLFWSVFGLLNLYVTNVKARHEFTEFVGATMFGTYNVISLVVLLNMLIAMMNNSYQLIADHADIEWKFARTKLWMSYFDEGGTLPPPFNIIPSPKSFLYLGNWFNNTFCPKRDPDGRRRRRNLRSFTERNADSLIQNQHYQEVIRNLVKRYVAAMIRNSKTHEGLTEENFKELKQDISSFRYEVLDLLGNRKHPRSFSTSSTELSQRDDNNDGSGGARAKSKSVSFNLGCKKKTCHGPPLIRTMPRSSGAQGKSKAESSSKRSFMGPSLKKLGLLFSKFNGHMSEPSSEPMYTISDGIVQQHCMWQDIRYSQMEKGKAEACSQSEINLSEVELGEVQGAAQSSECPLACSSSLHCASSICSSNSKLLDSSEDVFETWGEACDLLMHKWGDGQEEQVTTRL
# Test: TRPC5 automated patch clamp assay (Qpatch), current block after rosiglitazone stimulation
# Format: cell-based
# Conditions: Table 6; HEK293 cells overexpressing TRPC5; read-out: TRPC5-QPatch IC50
# Summary of the method: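 Currents were elicited by 300 ms voltage ramps (−100 to +100 mV, every 10 s, holding −60 mV) in human TRPC5-expressing HEK 293 cells on automated patch clamp, with Rosiglitazone (30 uM) activating the channel. Internal Ca2+ buffered to 1 μM; Hill-equation fitting gave IC50.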
row,IC50,Compound
1,5 to 10 µM,CCc1ncccc1Cn1nnc2c1CCN(c1cn[nH]c(=O)c1C#N)C2 [drawing 895]

# Biological target: T1, TRPC5
# Test: TRPC5 automated electrophysiology (Syncropatch - Spatch format)
# Format: cell-based
# Conditions: Table 6; HEK293 cells overexpressing TRPC5
# Protocol: The automated electrophysiological assay was carried out at room temperature. HEK-TRPC5 cells were cultured according to our standard operating procedures. Internal and external physiological solutions were freshly prepared prior to the assay. The free internal Ca2+ concentration was buffered to 1 μM according to the WCabuf software using 10 mMHEDTA. To monitor the ion currents, a voltage ramp from −100 mV to +80 mV, over 250 ms, was applied every 15 seconds, from a holding potential of −60 mV. To stabilize the inward and outward currents the voltage was kept steady at −100 mV and +80 mV for 20 ms. After recording for a minimum of 60 seconds control period, the activator (at 10, 15, 20 or 30 μM) was applied twice, before increasing concentrations of test compound (or vehicle) were applied to the cell. This was followed by a saturating concentration of the specific blocker ML 204 (100 μM). Graphs were plotted using the maximum outward current values obtained at +80 mV during the patch-clamp recordings. Data were normalized using the SyncroPatch384 equation Inorm=1−((Iconc−IFB)/(IRef−IFB)), where Iconc is the current amplitude at each concentration of agonist, IRef is the control current amplitude and IFB is the current in the presence of the saturating blocker ML204. Graphs were constrained between the maximum and minimum values. The series resistance (<15 MΩ) and quality of seals (>100 MΩ) were continuously monitored during the experiments. Data was analyzed using the Nanion Data Control384 software. EC/IC50 values were calculated using a least squares regression algorithm (Hill equation).
row,Compound,IC50
1,O=c1[nH]ncc(Cl)c1N1CCc2c(nc(C3CC3)n2Cc2ccccc2C(F)(F)F)C1,10 to 500 µM
2,C[C@H]1Cc2c(nnn2Cc2ccccc2C(F)F)CN1c1cn[nH]c(=O)c1Cl,10 to 500 µM
3,CC[C@H](c1cncc(F)c1)n1cnc2c1CCN(c1cn[nH]c(=O)c1Cl)C2,1 to 5 µM
4,CC1Cc2c(nnn2Cc2ccccc2C(F)F)CN1c1cn[nH]c(=O)c1Cl (stereo not drawn),1e-05 to 1 µM
5,CC1c2nnn(Cc3ccccc3C(F)F)c2CCN1c1cn[nH]c(=O)c1Cl (stereo not drawn) [drawing 923],10 to 500 µM
6,CC1c2nnn(Cc3ccccc3C(F)F)c2CCN1c1cn[nH]c(=O)c1Cl (stereo not drawn) [drawing 924],1e-05 to 1 µM

# The remaining lines, values ahead:
row,IC50,Compound
1,5 to 10 µM,N#Cc1cc(F)ccc1Cn1nnc2c1CCN(c1cn[nH]c(=O)c1Cl)C2
2,5 to 10 µM,O=c1[nH]ncc(N2CCc3c(nnn3Cc3cccnc3C(F)F)C2)c1Cl
3,1 to 5 µM,COc1cccc(Cn2nnc3c2CCN(c2cn[nH]c(=O)c2Cl)C3)c1C
4,1 to 5 µM,CCc1ncccc1Cn1nnc2c1CCN(c1cn[nH]c(=O)c1C#N)C2 [drawing 918]

# Biological target: T1, TRPC5
# Test: TRPC5 fluorescence assay, membrane potential dye, flexstation (FLEX)
# Format: cell-based
# Conditions: Table 6; HEK293 cells overexpressing TRPC5
# Protocol: HEK 293 cells expressing human TRPC5 cells were trypsinised, counted and seeded in black, clear-bottomed 96-well plates at a density of 50,000 cells per well and incubated overnight. Next day, the cells were loaded with membrane potential dye. Dye solution was made up according to the manufacturer's instructions in HEPES buffered Hank's balanced salt solution (HBSS). Dye solution (10 μL) was added to the wells and incubated at 37° C. for 1 hour. The test compounds and standard inhibitors were added to the wells and incubated at room temperature for 10 minutes. The plates were then placed in the flexstation and fluorescence monitored every 1.52 seconds. After 20 seconds, 10 μL of the appropriate standard agonist was added and the fluorescence monitored for 2 minutes at ex/emm: 530 nm/565 nm.
row,IC50,Compound
1,10 to 500 µM,CCc1ncccc1Cn1nnc2c1CCN(c1cn[nH]c(=O)c1C#N)C2 [drawing 895]
